Measurements reported in patent US4683239A, “3-diphenyl substituted octahydroindolizine analgesic compounds” (McNeilab, Inc., priority 1986, dated 1987).
Structures can show the parent of a compound that is named as a salt.

test system: mice; test: Mouse Acetylcholine-Bromide-Induced Abdominal Constriction Assay; assay type: in vivo; conditions: Mus musculus, po, 0.5 h, oral (p.o.), 30 min before i.p. 5.5 mg/kg acetylcholine bromide, dose which inhibits writhing by 50%
Procedure: […]., 32: 295-310, 1968, with minor modifications was used to assess analgesic potency of the compounds of formula (I). The test drugs or appropriate vehicle were administered orally (p.o.) and 30 minutes later the animals received an intraperitoneal (i.p.) injection of 5.5 mg/kg acetylcholine bromide (Matheson, Coleman and Bell, East Rutherford, NJ). The mice were then placed in groups of four into glass bell jars and observed for a ten minute observation period for the occurrence of a writhe (defined as a wave of constriction and elongation passing caudally along the abdominal wall, accompanied by a twisting of the trunk and followed by extension of the hind limbs). The percent inhibition of writhing (equated to % analgesia) was calculated as follows: The % Inhibition of writhing, i.e., % analgesia is equal to the difference between the No. of control animals writhing and the No. of drug-treated animals writhing times 100 divided by the No. of control animals writhing. At least 20 animals were used for control and in each of the drug treated groups. Four doses were used to determine each dose response curve and ED50 (that dose which inhibits writhing by 50%). The ED50 values and their 95% fiducial limits were determined by a computer assisted probit analysis.

Question: `CC(=O)Nc1cccc(C#Cc2ccc([C@@H]3CC[C@@H]4CCCCN43)cc2)c1` (relative stereo) [Example 2, N-[3-[[4-(trans-Octahydro-3-indolizinyl)phenyl]ethynyl]phenyl]acetamide] was tested. Which ED50 did it give?
Answer: 17.6 mg/kg

Question: Which ED50 does the source give for `Cl.c1ccc(COc2ccc([C@@H]3CC[C@@H]4CCCCN43)cc2)cc1` (relative stereo) [Example 3b, trans-Octahydro-3-[4-(phenylmethoxy)phenyl]indolizine Hydrochloride] here?
Answer: 16.8 mg/kg

Question: With `CC(=O)Nc1cccc(/C=C\c2ccc([C@H]3CC[C@H]4CCCCN43)cc2)c1` (relative stereo) [Example 4] as the molecule, how does the ED50 read?
Answer: 6.9 mg/kg

Question: `Cl.c1ccc(CCc2ccc([C@@H]3CC[C@@H]4CCCCN43)cc2)cc1` (relative stereo) [Example 6, trans-Octahydro-3-[4-(2-phenylethyl)phenyl]indolizine Hydrochloride] was tested. Which ED50 did it give?
Answer: 6.9 mg/kg

Question: For `CC(=O)Nc1ccc(Oc2ccc([C@H]3CC[C@H]4CCCCN43)cc2)cc1` (relative stereo) [Example 12f, N-[4-[4-trans-Octahydro-3-indolizinyl)phenoxy]phenylacetamide], which ED50 is on record?
Answer: ≤ 5 mg/kg

Question: `Cc1ccc(Sc2ccc(C3CCC4CCCCN43)cc2)cc1.Cl` (stereo not drawn) [Example 7, 3-[4-[(4-Methylphenyl)thio]phenyl]octahydroindolizine Hydrochloride] was tested. Which ED50 did it give?
Answer: 20 to 30 mg/kg

same assay, conditions: oral (p.o.), @ 30 mg/kg, 30 min before i.p. 5.5 mg/kg acetylcholine bromide, printed in ED50 column

Question: For `CC(=O)Nc1cccc(CCc2ccc([C@@H]3CC[C@@H]4CCCCN43)cc2)c1` (relative stereo) [Example 9, N-[3-[2-[4-(trans-Octahydro-3-indolizinyl)phenyl]ethyl]phenyl]acetamide], which “% Inhibition of writhing (% analgesia)” value is on record?
Answer: 86%

Question: For `CC(=O)Nc1cccc(Sc2ccc([C@H]3CC[C@H]4CCCCN43)cc2)c1` (relative stereo) [Example 11, N-[3-[[4-trans-Octahydro-3-indolizinyl)phenyl]thio]phenyl]acetamide Hydrochloride Hydrate], which “% Inhibition of writhing (% analgesia)” value is on record?
Answer: 73%

Question: Which “% Inhibition of writhing (% analgesia)” value does the source give for `CC(=O)Nc1ccc(Sc2ccc([C@@H]3CC[C@@H]4CCCCN43)cc2)c(Cl)c1.Cl` (relative stereo) [Example 13e] here?
Answer: 46%
